Results from patent publication US20070249555A1, “Use of Atp Analogues for Treatment of Cardiovascular Diseases” (INSTITUT NATIONAL DE LA SANTE ET DE LA RECHERCHE MEDICALE …, priority 2004, published 2007).

Key:
HepG2 cells = test: TG-HDL2 internalization by HepG2 cells; format: cell-based, human; settings: 10 min at 37° C.; for effect on the stimulation by ADP of the TG-HDL2 internalization: ADP 100 nM + A2P5P 100 μM or MRS2179 10 μM
Experimental: Cells were incubated for 10 minutes at 37° C. with 75 μg/ml^125I-TG-HDL2 without (control) or with apolipoprotein A-I 10 μg/ml (a), ADP 100 nM (b), AR-C69931MX 100 nM (c), ADP 100 nM+AR-C69931MX 100 nM (d), ADP 100 nM+[…] 100 μM (e), ADP 100 nM+MRS2179 10 μM (f). […] Internalization assays were performed as described in Guendouzi et al., (Biochemistry, 1998, 37: 14974-80) on HepG2 cells, obtained from the American Type Culture Collection ([…]). Cells were incubated for 10 minutes at 37° C. with 75 μg/ml of either ^125I-TG-HDL2, ^125I-HDL3 or ^125I-LDL. After washing and dissociation at 4° C. in phosphate buffered saline (PBS), cell radioactivity was determined using a Wallac 1261 multigamma apparatus. Prior experiments, cells were plated in polylysine-coated 24-multiwell plates (Falcon) at 4×10^4 cells per well. Cells were grown in Dulbecco's modified Eagles medium supplemented with 10% fetal calf serum, 100 units/ml penicillin, and 100 μg/ml streptomycin at 37° C. in a 5% CO2 and 95% air incubator. Medium was changed every 2 or 3 days, and the cells were subcultured every 7-8 days. Results are expressed as a percentage of internalization with respect to the control value (set at 0). Control corresponded to a basal value of internalization, amounting to 400 ng, 300 ng, 200 ng of TG-HDL2, HDL3 and LDL per mg of cells protein respectively for 10 minutes. Data as a mean ±SEM of at least 7, 5, 6 independent experiments, for TG-HDL2, HDL3 and LDL respectively.

human P2Y1 receptor = target: T1, human P2Y1 receptor (Homo sapiens, UniProt P47900); test: TG-HDL2 internalization by HepG2 cells after P2Y1 receptor silencing by siRNA; format: cell-based; settings: HepG2, pool of 4 P2Y1 siRNAs 100 nM, 48 h; apoA-I 10 μg/ml, ADP 100 nM, AR-C69931MX 100 nM
T1 construct: host or cells: HepG2
T1 sequence (P47900 whole entry): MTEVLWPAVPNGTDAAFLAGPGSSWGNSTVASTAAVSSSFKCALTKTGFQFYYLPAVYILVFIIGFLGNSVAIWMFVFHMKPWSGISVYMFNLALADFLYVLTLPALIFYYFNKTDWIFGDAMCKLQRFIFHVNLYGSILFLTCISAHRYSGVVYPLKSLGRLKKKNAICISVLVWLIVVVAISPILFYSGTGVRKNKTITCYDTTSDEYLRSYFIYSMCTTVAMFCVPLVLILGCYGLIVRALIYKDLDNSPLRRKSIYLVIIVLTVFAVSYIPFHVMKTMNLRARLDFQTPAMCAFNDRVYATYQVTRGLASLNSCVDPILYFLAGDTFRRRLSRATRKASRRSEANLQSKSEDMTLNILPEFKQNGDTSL
Experimental: HepG2 cells were transiently transfected with siRNA designated to human P2Y1 receptor (columns d, e, f, g) or with non specific siRNA as control (a, b, c). 48 hours later, cells were incubated for 10 minutes at 37° C. with 75 μg/ml ^125I-TG HDL2 without (control) or with apolipoprotein A-I 10 μg/ml (a and d), ADP 100 nM (b and e), AR-C69931MX 100 nM (c and f), PBS (g). Data are expressed as a percentage of internalized radioactivity with respect to the control value (set as 0) (n>5); (*) p<0.05 (unpaired t-test).
(§1) Internalization assays were performed as described in Guendouzi et al., (Biochemistry, 1998, 37: 14974-80) on HepG2 cells, obtained from the American Type Culture Collection ([…]). Cells were incubated for 10 minutes at 37° C. with 75 μg/ml of either ^125I-TG-HDL2, ^125I-HDL3 or ^125I-LDL. After washing and dissociation at 4° C. in phosphate buffered saline (PBS), cell radioactivity was determined using a Wallac 1261 multigamma apparatus.
(§2) The silencing of the different P2Y receptors were carried-out using the siRNA technique. The siRNA sequenced targeting human P2Y13 receptor (Gene Bank GB/EMBL/DDBJ accession number AF295368) was from position 406 or 359 relative to the start codon. The siRNA duplex (21-nt-RNAs) in deprotected and desalted form, the siRNA targeting human P2Y1 receptor (a mix of 4 siRNAs, M-005689), and the non-specific control siRNA (D-001206-01) were purchased from Dharmacon Inc. Subconfluent HepG2 cells were transiently transfected with siRNAs (final concentration, 100 nM) using Oligofectamine™ according to the manufacturer's protocole (Invitrogen). Cells were usually assayed 48 hours after transfection. Specific silencing effect was confirmed by at least three independent experiments.
Results are expressed as a percentage of internalization with respect to the control value (set at 0). Control corresponded to a basal value of internalization, amounting to 400 ng, 300 ng, 200 ng of TG-HDL2, HDL3 and LDL per mg of cells protein respectively for 10 minutes. […]

human P2Y13 receptor = target: T2, human P2Y13 receptor (Homo sapiens, UniProt Q9BPV8); test: TG-HDL2 internalization by HepG2 cells after P2Y13 receptor silencing by siRNA; format: cell-based; settings: HepG2, P2Y13 siRNA 100 nM, 48 h; apoA-I 10 μg/ml, ADP 100 nM, AR-C69931MX 100 nM
T2 construct: host or cells: HepG2
T2 sequence (Q9BPV8 1-354): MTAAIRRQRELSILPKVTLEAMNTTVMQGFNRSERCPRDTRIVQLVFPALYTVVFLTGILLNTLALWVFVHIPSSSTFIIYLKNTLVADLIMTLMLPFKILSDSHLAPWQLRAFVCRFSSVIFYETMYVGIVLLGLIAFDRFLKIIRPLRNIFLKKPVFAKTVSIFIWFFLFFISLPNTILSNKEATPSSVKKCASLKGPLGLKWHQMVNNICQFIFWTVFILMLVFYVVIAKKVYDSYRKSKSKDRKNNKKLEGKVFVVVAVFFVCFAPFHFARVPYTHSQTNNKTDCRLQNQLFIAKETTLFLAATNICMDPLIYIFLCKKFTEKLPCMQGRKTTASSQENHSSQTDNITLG
Experimental: Experiment was performed as in FIG. 2A with non-specific control siRNA (a, b, c) or with siRNA directed to human P2Y13 receptor (d, e, f, g) (n>7); (*) p<0.05 (unpaired t-test).
as §1, §2
Results are expressed as a percentage of internalization with respect to the control value (set at 0). Control corresponded to a basal value of internalization, amounting to 400 ng, 300 ng, 200 ng of TG-HDL2, HDL3 and LDL per mg of cells protein respectively for 10 minutes. Data as a mean ±SEM of at least 7, 5, 6 independent experiments, for TG-HDL2, HDL3 and LDL respectively.

Row | effect of P2Y1 receptors silencing on the stimulation of TG-HDL2 endocytosis (human P2Y1 receptor) | effect of P2Y13 receptor silencing on TG-HDL2 endocytosis after stimulation (human P2Y13 receptor) | Compound | effect on the stimulation by ADP of the TG-HDL2 internalization (HepG2 cells) | internalization of 125I-TG-HDL2 by HepG2 cells, increase above control cells (HepG2 cells; 75 μg/ml 125I-TG-HDL2, apoA-I 10 μg/ml, ADP 100 nM, AR-C69931MX 100 nM alone) [%]
1 | – | – | Nc1ncnc2c1ncn2[C@@H]1O[C@H](COP(=O)(O)O)[C@@H](O)[C@H]1OP(=O)(O)O [A2P5P] | no effect | –
2 | – | – | CNc1ncnc2c1ncn2[C@H]1C[C@H](OP(=O)(O)O)[C@@H](COP(=O)(O)O)O1 [MRS2179] | no effect | –
3 | no effect | dramatic inhibition | apoA-I: HDL apolipoprotein A-I; generates ADP through activation of the ectopic form of ATP synthase | – | 20
